Reference: patent US10227349B2, “Pyrazolo[1,5-a]pyrimidine compound” (Eisai R&D Management Co., Ltd., priority 2016, dated 2019)

Key:
PAR2 = target: T1, PAR2 (Homo sapiens, UniProt P55085); test: Intracellular calcium concentration measurement (trypsin-induced calcium elevation, FDSS6000); format: cell-based; conditions: HEK293 cells, trypsin 5 U/mL as agonist, test compound added 30 min before measurement; read-out: Inhibitory activity on intracellular calcium elevation (IC50 (nM))
T1 construct: Human embryonic kidney cell line HEK293 cells cultured using DMEM culture medium; endogenous in cells; host or cells: HEK293
T1 sequence (P55085 26-397): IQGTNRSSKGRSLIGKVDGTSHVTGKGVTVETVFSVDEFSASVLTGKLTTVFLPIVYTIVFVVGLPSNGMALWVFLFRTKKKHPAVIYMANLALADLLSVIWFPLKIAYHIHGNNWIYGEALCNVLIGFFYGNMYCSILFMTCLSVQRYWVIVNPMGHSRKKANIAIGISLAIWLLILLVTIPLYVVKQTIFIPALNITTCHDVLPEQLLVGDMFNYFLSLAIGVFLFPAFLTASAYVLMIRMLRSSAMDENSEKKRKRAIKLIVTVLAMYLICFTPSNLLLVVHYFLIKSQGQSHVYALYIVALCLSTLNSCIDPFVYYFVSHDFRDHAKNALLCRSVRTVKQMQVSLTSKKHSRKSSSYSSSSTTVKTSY
Summary of the method: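 HEK293 cells grown overnight in 3% FBS on collagen-coated plates were loaded for 1 h with FLIPR calcium dye in Hanks–20 mM HEPES, pH 7.4. The calcium fluorescence change was recorded on FDSS6000 for 120 s at 37 °C.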

[1] = test system: mite antigen-induced dermatitis in NC/NgaTndCrlj mice; test: Model for mite antigen-induced atopic dermatitis (dermatitis score); format: in vivo, mouse; set-up: key: sum of 5 findings, each 0 = none, 1 mild, 2 moderate, 3 severe
Experimental: A 4 w/v % SDS solution (0.15 mL/mouse) was first applied to the dorsal region and auricle region of 8-week old male NC/NgaTndCrlj mice (Charles River Laboratories Japan, Inc.) under isoflurane inhalation anesthesia. About 3 hours after the application of the 4 w/v % SDS solution (0.15 mL/mouse), a 1 mL-polypropylene disposable syringe (Terumo Corporation) was filled with Bio stir AD (Biostir Inc.) as a mite antigen ointment which was applied to the dorsal region and auricle region (0.1 mL/mouse). Every 2 or 3 days, the 4 w/v % SDS solution (0.15 mL/mouse) and Biostir AD were applied to a total of 8 times including the initial application by the same method to induce dermatitis. After inducing the dermatitis, the conditions of the skin at the application sites (assessments other than itching behavior) were observed and the dermatitis findings 1) to 5) described below were scored based on the evaluation criteria for the clinical symptoms of human atopic dermatitis. Note that the scoring of the dermatitis findings 1) to 5) has 0 for no symptom, 1 for mild, 2 for moderate and 3 for severe. The dermatitis score of each individual is the total of the dermatitis findings 1) to 5). Grouping (15 mice per group) was carried out randomly so that each group had substantially the same (no statistically significant difference) average dermatitis score (total) and average body weight. For 14 days from the day on which the grouping was carried out, an administration solution containing the test compound (10 mL/kg) was orally administered to the mouse once a day (14 times in total). The administration solution was a 0.5% carboxymethyl cellulose solution containing 10 mmol/L sodium hydroxide and made up into three types of solution having test compound concentrations of 0.3, 1 or 3 mg/mL.

| SMILES | IC50 (PAR2) | Dermatitis score (total of findings 1 to 5) ([1]; 3 mg/kg orally once a day, 4 days after starting administration) | Dermatitis score (total of findings 1 to 5) ([1]; 3 mg/kg orally once a day, 7 days after starting administration) | Dermatitis score (total of findings 1 to 5) ([1]; 3 mg/kg orally once a day, 11 days after starting administration) | Dermatitis score (total of findings 1 to 5) ([1]; 3 mg/kg orally once a day, 14 days after starting administration) | Dermatitis score (total of findings 1 to 5) ([1]; 3 mg/kg orally once a day, day 0 (day of grouping)) | Dermatitis score (total of findings 1 to 5) ([1]; 10 mg/kg orally once a day, 4 days after starting administration) | Dermatitis score (total of findings 1 to 5) ([1]; 10 mg/kg orally once a day, 7 days after starting administration) | Dermatitis score (total of findings 1 to 5) ([1]; 10 mg/kg orally once a day, 11 days after starting administration) | Dermatitis score (total of findings 1 to 5) ([1]; 10 mg/kg orally once a day, 14 days after starting administration) | Dermatitis score (total of findings 1 to 5) ([1]; 10 mg/kg orally once a day, day 0 (day of grouping)) | Dermatitis score (total of findings 1 to 5) ([1]; 30 mg/kg orally once a day, 4 days after starting administration) | Dermatitis score (total of findings 1 to 5) ([1]; 30 mg/kg orally once a day, 7 days after starting administration) | Dermatitis score (total of findings 1 to 5) ([1]; 30 mg/kg orally once a day, 11 days after starting administration) | Dermatitis score (total of findings 1 to 5) ([1]; 30 mg/kg orally once a day, 14 days after starting administration) | Dermatitis score (total of findings 1 to 5) ([1]; 30 mg/kg orally once a day, day 0 (day of grouping)) |
| --- | --- | --- | --- | --- | --- | --- | --- | --- | --- | --- | --- | --- | --- | --- | --- | --- |
| C[C@@H](c1ccccc1)N(C)c1cc(-c2cc(F)c(F)c(F)c2)nc2cc(C(=O)N3CCC(CC(=O)O)CC3)nn12 [Reference Example 1, (S)-2-(1-(7-(methyl(1-phenylethyl)amino)-5-(3,4,5-trifluorophenyl)pyrazolo[1,5-a]pyrimidine-2-carbonyl)piperidin-4-yl)acetic acid, reference compound] | 8.27 nM | – | – | – | – | – | – | – | – | – | – | – | – | – | – | – |
| CO[C@H]1CN(C(=O)c2cc3nc(-c4cc(F)c(Cl)c(F)c4)cc(N(C)c4c(C)cccc4F)n3n2)CC[C@H]1CC(=O)O [Example 10, 2-((3R,4S)-1-(5-(4-chloro-3,5-difluorophenyl)-7-((2-fluoro-6-methylphenyl)(methyl)amino)pyrazolo[1,5-a]pyrimidine-2-carbonyl)-3-methoxypiperidin-4-yl)acetic acid] | 3.46 nM | 9.1 ± 0.5 | 8.6 ± 0.7 | 6.7 ± 0.7 | 5.4 ± 0.7 | 9.7 ± 0.5 | 8.6 ± 0.9 | 7.7 ± 0.8 | 7.1 ± 1.0 | 5.9 ± 0.9 | 9.3 ± 0.6 | 8.7 ± 0.7 | 7.8 ± 0.8 | 6.5 ± 0.8 | 5.0 ± 0.8 | 9.3 ± 0.6 |
